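Growth conditions: 96-well plates. Treatment: test compound, 48 hours, 5 concentrations. Analysis: linear interpolation between bracketing concentrations; unreached endpoints set to highest concentration. Abbreviation: GI50, concentration required for 50% inhibition of growth. At the TGI there is no net growth.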
Assays:
Experiment in all cases: NCI tumour cell line growth inhibition, 48 h
[1] = system: RXF 393 renal
[2] = system: DMS 114 small cell lung
[3] = system: LXFL 529 NSCLC
[4] = system: IGROV1 ovarian
[5] = system: SNB-78 CNS
[6] = system: NCI-H226 lung
[7] = system: ACHN renal
[8] = system: SK-OV-3 ovarian
[9] = system: M14 melanoma
[10] = system: 786-0 renal
[11] = system: U251 CNS
[12] = system: HL-60(TB) leukemia
[13] = system: OVCAR-3 ovarian
[14] = system: UACC-257 melanoma
[15] = system: HCC-2998 colon
[16] = system: MALME-3M melanoma
[17] = system: KM12 colon
[18] = system: COLO 205 colon
[19] = system: OVCAR-4 ovarian
[20] = system: SK-MEL-2 melanoma
[21] = system: DMS 273 small cell lung
[22] = system: HOP-92 NSCLC
[23] = system: HCT-116 colon
[24] = system: UO-31 renal
[25] = system: TK-10 renal
[26] = system: SF-539 CNS
[27] = system: SNB-75 CNS
[28] = system: SF-295 CNS
[29] = system: XF 498 CNS
[30] = system: HOP-62 NSCLC
[31] = system: RPMI-8226 leukemia
[32] = system: SK-MEL-28 melanoma
[33] = system: UACC-62 melanoma
[34] = system: SF-268 CNS
[35] = system: NCI-H522 lung
[36] = system: EKVX NSCLC
[37] = system: OVCAR-5 ovarian
[38] = system: A549 NSCLC
[39] = system: HOP-18 NSCLC
[40] = system: LOX IMVI melanoma
[41] = system: CCRF-CEM leukemia
[42] = system: NCI-H460 lung
[43] = system: SK-MEL-5 melanoma
[44] = system: K-562 leukemia
[45] = system: DLD-1 colon
[46] = system: KM20L2 colon
[47] = system: OVCAR-8 ovarian
[48] = system: A498 renal
[49] = system: SNB-19 CNS
[50] = system: NCI-H23 lung
[51] = system: SN12C renal
[52] = system: HT29 colon
[53] = system: SR leukemia
[54] = system: MOLT-4 leukemia
[55] = system: M19-MEL melanoma
[56] = system: SW-620 colon
[57] = system: HCT-15 colon

`CC[C@@]1(O)C(=O)OCc2c1cc1n(c2=O)Cc2cc3cccc([N+](=O)[O-])c3nc2-1` showed a GI50 [1] of 1.83 µM, a TGI [1] of 7.18 µM and a GI50 [2] of 0.684 µM. The TGI [2] was 38.3 µM, the GI50 [3] was 14.2 µM and the TGI [3] was > 100 µM. The GI50 [4] was 1.96 µM, the TGI [4] was 14.9 µM and the GI50 [5] was 34.3 µM. The TGI [5] was > 100 µM, the GI50 [6] was 0.552 µM and the TGI [6] was 6.49 µM. It also gave a GI50 [7] of 0.322 µM, a TGI [7] of 3.01 µM and a GI50 [8] of 0.501 µM. It also gave a TGI [8] of 17.1 µM, a GI50 [9] of 1.05 µM and a TGI [9] of 12.5 µM. For the same molecule, the GI50 [10] was 0.3 µM, the TGI [10] was 1.29 µM and the GI50 [11] was 0.312 µM. For the same molecule, the TGI [11] was 3.07 µM, the GI50 [12] was 0.365 µM and the TGI [12] was > 100 µM. The GI50 [13] was 4.92 µM, the TGI [13] was 43.5 µM and the GI50 [14] was 2.81 µM. It also gave a TGI [14] of 36.9 µM, a GI50 [15] of 4.92 µM and a TGI [15] of 31.8 µM. For the same molecule, the GI50 [16] was 4.35 µM, the TGI [16] was > 100 µM and the GI50 [17] was 4.82 µM. For the same molecule, the TGI [17] was 35.6 µM, the GI50 [18] was 4.63 µM and the TGI [18] was 25.9 µM. The GI50 [19] was 4.04 µM, the TGI [19] was 24.3 µM and the GI50 [20] was 6.11 µM. For the same molecule, the TGI [20] was 24.8 µM, the GI50 [21] was 0.175 µM and the TGI [21] was 1.67 µM. The GI50 [22] was 8.45 µM, the TGI [22] was 50.8 µM and the GI50 [23] was 1.58 µM. For the same molecule, the TGI [23] was 13.6 µM, the GI50 [24] was 1.17 µM and the TGI [24] was 6.91 µM. The GI50 [25] was 21 µM, the TGI [25] was > 100 µM and the GI50 [26] was 0.478 µM. For the same molecule, the TGI [26] was 2.89 µM, the GI50 [27] was 0.879 µM and the TGI [27] was 7.85 µM. For the same molecule, the GI50 [28] was 0.346 µM, the TGI [28] was 16 µM and the GI50 [29] was 3.12 µM. For the same molecule, the TGI [29] was 34.6 µM, the GI50 [30] was 0.142 µM and the TGI [30] was 0.582 µM. The GI50 [31] was 1.71 µM, the TGI [31] was 64.5 µM and the GI50 [32] was 43.9 µM. The TGI [32] was > 100 µM, the GI50 [33] was 0.299 µM and the TGI [33] was 1.28 µM. The GI50 [34] was 0.794 µM, the TGI [34] was > 100 µM and the GI50 [35] was 1.04 µM. For the same molecule, the TGI [35] was 23.3 µM, the GI50 [36] was 96.9 µM and the TGI [36] was > 100 µM. For the same molecule, the GI50 [37] was 1.55 µM, the TGI [37] was 28.4 µM and the GI50 [38] was 0.6 µM. The TGI [38] was 41.5 µM, the GI50 [39] was 1.85 µM and the TGI [39] was > 100 µM. The GI50 [40] was 0.429 µM, the TGI [40] was 6.14 µM and the GI50 [41] was 0.0506 µM. It also gave a TGI [41] of 50.4 µM, a GI50 [42] of 0.0671 µM and a TGI [42] of 1.51 µM. The GI50 [43] was 1.18 µM, the TGI [43] was 2.74 µM and the GI50 [44] was 3.55 µM. The TGI [44] was > 100 µM, the GI50 [45] was 24.6 µM and the TGI [45] was > 100 µM. The GI50 [46] was 3.24 µM, the TGI [46] was 41.7 µM and the GI50 [47] was 0.857 µM. The TGI [47] was > 100 µM, the GI50 [48] was 1.43 µM and the TGI [48] was 5.03 µM. It also gave a GI50 [49] of 0.877 µM, a TGI [49] of 31.4 µM and a GI50 [50] of 0.486 µM. For the same molecule, the TGI [50] was 4.19 µM, the GI50 [51] was 0.382 µM and the TGI [51] was 5.01 µM. For the same molecule, the GI50 [52] was 2.18 µM and the TGI [52] was > 100 µM.

`Cc1cc(C)n(-c2ccnc3cc(Cl)ccc23)n1` was tested, and the TGI [1] was > 100 µM, the TGI [2] was > 100 µM and the TGI [53] was > 100 µM. For the same molecule, the TGI [3] was > 100 µM, the TGI [4] was > 100 µM and the TGI [5] was > 100 µM. The TGI [6] was > 100 µM, the TGI [7] was > 100 µM and the TGI [8] was > 100 µM. The TGI [9] was > 100 µM, the TGI [10] was > 100 µM and the TGI [11] was > 100 µM. For the same molecule, the TGI [12] was > 100 µM, the TGI [13] was > 100 µM and the TGI [54] was > 100 µM. The TGI [14] was > 100 µM, the TGI [15] was > 100 µM and the TGI [16] was > 100 µM. For the same molecule, the TGI [17] was > 100 µM, the TGI [18] was > 100 µM and the TGI [19] was > 100 µM. For the same molecule, the TGI [20] was > 100 µM, the TGI [55] was > 100 µM and the TGI [21] was > 100 µM. The TGI [22] was > 100 µM, the TGI [23] was > 100 µM and the TGI [24] was > 100 µM. The TGI [25] was > 100 µM, the TGI [26] was > 100 µM and the TGI [27] was > 100 µM. The TGI [28] was > 100 µM, the TGI [56] was > 100 µM and the TGI [29] was > 100 µM. The TGI [30] was > 100 µM, the TGI [57] was > 100 µM and the TGI [31] was > 100 µM. The TGI [32] was > 100 µM, the TGI [33] was > 100 µM and the TGI [34] was > 100 µM. For the same molecule, the TGI [36] was > 100 µM, the TGI [37] was > 100 µM and the TGI [38] was > 100 µM. For the same molecule, the TGI [39] was > 100 µM, the TGI [40] was > 100 µM and the TGI [41] was > 100 µM. The TGI [42] was > 100 µM, the TGI [43] was > 100 µM and the TGI [44] was > 100 µM. The TGI [45] was > 100 µM, the TGI [46] was > 100 µM and the TGI [47] was > 100 µM. For the same molecule, the TGI [48] was > 100 µM, the TGI [49] was > 100 µM and the TGI [50] was > 100 µM. The TGI [51] was > 100 µM and the TGI [52] was > 100 µM.
